# Source: patent US20250213735A1, “NEUROPEPTIDE Y1 RECEPTOR (NPY1R) TARGETED THERAPEUTICS AND USES THEREOF” (Radionetics Oncology, Inc., priority 2023, published 2025)
# Biological target: hNPY1R (Homo sapiens (Human), UniProt P25929)
# Test: NPY1R binding assay (SK-N-MC membrane, [125I]-Peptide YY competition);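 note: bound radioligand separated by filtration over GF/C filter plates and counted, Ki obtained by non-linear regression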
# Conditions: crude SK-N-MC membranes endogenously expressing NPY1R; [125I]-Peptide YY (human) 0.05 nM; 120 min at room temperature; read-out: hNPY1R binding Ki
# Sequence of hNPY1R (P25929 whole entry): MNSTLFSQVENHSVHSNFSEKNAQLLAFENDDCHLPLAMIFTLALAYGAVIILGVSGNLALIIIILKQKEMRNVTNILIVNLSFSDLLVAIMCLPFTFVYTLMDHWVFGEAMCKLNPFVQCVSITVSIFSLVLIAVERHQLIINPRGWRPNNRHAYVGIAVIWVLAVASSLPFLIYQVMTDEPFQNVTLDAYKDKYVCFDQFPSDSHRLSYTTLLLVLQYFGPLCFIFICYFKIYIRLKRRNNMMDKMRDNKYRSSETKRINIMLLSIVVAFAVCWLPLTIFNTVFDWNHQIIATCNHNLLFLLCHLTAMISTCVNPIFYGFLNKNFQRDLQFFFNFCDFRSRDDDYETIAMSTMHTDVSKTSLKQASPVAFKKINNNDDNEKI
row,SMILES,Ki
1,"CCC1CCN(C(C(=O)N[C@H](CCCNC(=N)N)C(=O)NCc2ccc(O)cc2)c2ccccc2)CC1 (stereo partly drawn) [compound 79, (2R)-2-(2-(4-ethylpiperidin-1-yl)-2-phenylacetamido)-5-guanidino-N-(4-hydroxybenzyl)pentanamide]",10 to 100 nM
2,CCC(=O)NCCNC(=O)/N=C(/N)NCCC[C@@H](NC(=O)[C@@H](c1ccc(OCCCN)cc1)N1Cc2ccccc2C1)C(=O)NCc1ccc(O)cc1 [64B],10 to 100 nM
3,"N=C(N)NCCC[C@@H](NC(=O)C(c1ccccc1)N1CCC(c2ccccc2)CC1)C(=O)NCc1ccc(O)cc1 (stereo partly drawn) [compound 86, (2R)-5-guanidino-N-(4-hydroxybenzyl)-2-(2-phenyl-2-(4-phenylpiperidin-1-yl)acetamido)pentanamide]",100 to 1000 nM
4,"CCNC(=O)/N=C(/N)NCCC[C@@H](NC(=O)[C@H](c1cccc(NCCCN)c1)N1Cc2ccccc2C1)C(=O)NCc1c(F)cc(O)cc1F [66A, (R)-2-((S)-2-(3-((3-aminopropyl)amino)phenyl)-2-(isoindolin-2-yl)acetamido)-N-(2,6-difluoro-4-hydroxybenzyl)-5-((Z)-2-(ethylcarbamoyl)guanidino)pentanamide]",< 10 nM
5,"CCC(=O)NCCNC(=O)/N=C(/N)NCCC[C@@H](NC(=O)[C@H](c1ccc(OCCCNC(=O)CCNC(=O)CN2CCN(CC(=O)O)CCN(CC(=O)O)CCN(CC(=O)O)CC2)cc1)N1Cc2ccccc2C1)C(=O)NCc1c(F)cc(O)cc1F [compound 47, 2,2′,2″-(10-(2-((3-((3-(4-((1S,4R,Z)-9-amino-4-((2,6-difluoro-4-hydroxybenzyl)carbamoyl)-1-(isoindolin-2-yl)-2,11,16-trioxo-3,8,10,12,15-pentaazaoctadec-9-en-1-yl)phenoxy)propyl)amino)-3-oxopropyl)amino)-2-oxoethyl)-1,4,7,10-tetraazacyclododecane-1,4,7-triyl)triacetic acid]",< 10 nM
6,"CCC(=O)NCCNC(=O)/N=C(/N)NCCC[C@@H](NC(=O)[C@H](c1ccccc1)N1Cc2cccc(NCCCNC(=O)CCCCCNC(=O)CN3CCN(CC(=O)O)CCN(CC(=O)O)CCN(CC(=O)O)CC3)c2C1)C(=O)NCc1c(F)cc(O)cc1F [compound 33, 2,2′,2″-(10-(2-((6-((3-((2-((1S,4R,Z)-9-amino-4-((2,6-difluoro-4-hydroxybenzyl)carbamoyl)-2,11,16-trioxo-1-phenyl-3,8,10,12,15-pentaazaoctadec-9-en-1-yl)isoindolin-4-yl)amino)propyl)amino)-6-oxohexyl)amino)-2-oxoethyl)-1,4,7,10-tetraazacyclododecane-1,4,7-triyl)triacetic acid]",< 10 nM
7,"CCC(=O)NCCNC(=O)/N=C(/N)NCCC[C@@H](NC(=O)[C@H](c1ccc(OCCCN)cc1)N1Cc2ccccc2C1)C(=O)NCc1ccc(O)cc1 [64A, (R)-2-((S)-2-(4-(3-aminopropoxy)phenyl)-2-(isoindolin-2-yl)acetamido)-N-(4-hydroxybenzyl)-5-((Z)-2-((2-propionamidoethyl)carbamoyl)guanidino)pentanamide]",< 10 nM
8,"CCC(=O)NCCNC(=O)/N=C(/N)NCCC[C@@H](NC(=O)[C@H](c1ccc(OCCCNC(=O)CCOCCNC(=O)CN2CCN(CC(=O)O)CCN(CC(=O)O)CCN(CC(=O)O)CC2)cc1)N1Cc2ccccc2C1)C(=O)NCc1ccc(O)cc1 [compound 15, 2,2′,2″-(10-(2-((2-(3-((3-(4-((1S,4R,Z)-9-amino-4-((4-hydroxybenzyl)carbamoyl)-1-(isoindolin-2-yl)-2,11,16-trioxo-3,8,10,12,15-pentaazaoctadec-9-en-1-yl)phenoxy)propyl)amino)-3-oxopropoxy)ethyl)amino)-2-oxoethyl)-1,4,7,10-tetraazacyclododecane-1,4,7-triyl)triacetic acid]",< 10 nM
9,"CCC(=O)NCCNC(=O)/N=C(/N)NCCC[C@@H](NC(=O)[C@@H](c1ccc(OCCCNC(=O)CCCCCNC(=O)CN2CCN(CC(=O)O)CCN(CC(=O)O)CCN(CC(=O)O)CC2)cc1)N1Cc2ccccc2C1)C(=O)NCc1ccc(O)cc1 [1B, 2,2′,2″-(10-(2-((6-((3-(4-((1R,4R,Z)-9-amino-4-((4-hydroxybenzyl)carbamoyl)-1-(isoindolin-2-yl)-2,11,16-trioxo-3,8,10,12,15-pentaazaoctadec-9-en-1-yl)phenoxy)propyl)-amino)-6-oxohexyl)amino)-2-oxoethyl)-1,4,7,10-tetraazacyclododecane-1,4,7-triyl)triacetic acid-2,2,2-trifluoroacetic acid (1/1)]",100 to 1000 nM
10,"CCC(=O)NCCNC(=O)/N=C(/N)NCCC[C@@H](NC(=O)[C@H](c1ccc(OCCCN2CCN(C3CCN(C(=O)CCCCCNC(=O)CN4CCN(CC(=O)O)CCN(CC(=O)O)CCN(CC(=O)O)CC4)CC3)CC2)cc1)N1Cc2ccccc2C1)C(=O)NCc1c(F)cc(O)cc1F [compound 35, 2,2′,2″-(10-(2-((6-(4-(4-(3-(4-((1S,4R,Z)-9-amino-4-((2,6-difluoro-4-hydroxybenzyl)carbamoyl)-1-(isoindolin-2-yl)-2,11,16-trioxo-3,8,10,12,15-pentaazaoctadec-9-en-1-yl)phenoxy)propyl)piperazin-1-yl)piperidin-1-yl)-6-oxohexyl)amino)-2-oxoethyl)-1,4,7,10-tetraazacyclododecane-1,4,7-triyl)triacetic acid]",< 10 nM
11,"CC1(C)CCCN(C(C(=O)N[C@H](CCCNC(=N)N)C(=O)NCc2ccc(O)cc2)c2ccccc2)C1 (stereo partly drawn) [compound 75, (2R)-2-(2-(3,3-dimethylpiperidin-1-yl)-2-phenylacetamido)-5-guanidino-N-(4-hydroxybenzyl)pentanamide]",100 to 1000 nM
12,"CCC(=O)NCCNC(=O)/N=C(/N)NCCC[C@@H](NC(=O)[C@H](c1ccc(OCCCN2CCN(C(=O)CCNC(=O)CN3CCN(CC(=O)O)CCN(CC(=O)O)CCN(CC(=O)O)CC3)CC2)cc1)N1Cc2ccccc2C1)C(=O)NCc1c(F)cc(O)cc1F [compound 4, 2,2′,2″-(10-(2-((3-(4-(3-(4-((1S,4R,Z)-9-amino-4-((2,6-difluoro-4-hydroxybenzyl)carbamoyl)-1-(isoindolin-2-yl)-2,11,16-trioxo-3,8,10,12,15-pentaazaoctadec-9-en-1-yl)phenoxy)propyl)piperazin-1-yl)-3-oxopropyl)amino)-2-oxoethyl)-1,4,7,10-tetraazacyclododecane-1,4,7-triyl)triacetic acid-2,2,2-trifluoroacetic acid (1/1)]",< 10 nM
13,"CCNC(=O)/N=C(/N)NCCC[C@@H](NC(=O)C(c1ccccc1)N1CCC(C(C)(C)C)CC1)C(=O)NCc1ccc(O)cc1 (stereo partly drawn) [compound 91, (2R)-2-(2-(4-(tert-butyl)piperidin-1-yl)-2-phenylacetamido)-5-((Z)-2-(ethylcarbamoyl)guanidino)-N-(4-hydroxybenzyl)pentanamide]",< 10 nM
14,"CC1(C)C2CN([C@@H](C(=O)N[C@H](CCCNC(=N)N)C(=O)NCc3ccc(O)cc3)c3ccccc3)CC21 (stereo partly drawn) [88B, (2R)-2-((2R)-2-(6,6-dimethyl-3-azabicyclo[3.1.0]hexan-3-yl)-2-phenylacetamido)-5-guanidino-N-(4-hydroxybenzyl)pentanamide]",> 1000 nM
15,"CC(C)C1CCN(C(C(=O)N[C@H](CCCNC(=N)N)C(=O)NCc2ccc(O)cc2)c2ccccc2)CC1 (stereo partly drawn) [compound 77, (2R)-5-guanidino-N-(4-hydroxybenzyl)-2-(2-(4-isopropylpiperidin-1-yl)-2-phenylacetamido)pentanamide]",10 to 100 nM
16,"CCC(=O)NCCNC(=O)/N=C(/N)NCCC[C@@H](NC(=O)[C@H](c1cccc(OCCCNC(=O)CCCCCNC(=O)CN2CCN(CC(=O)O)CCN(CC(=O)O)CCN(CC(=O)O)CC2)c1)N1Cc2ccccc2C1)C(=O)NCc1ccc(O)cc1 [compound 12, 2,2′,2″-(10-(2-((6-((3-(3-((1S,4R,Z)-9-amino-4-((4-hydroxybenzyl)carbamoyl)-1-(isoindolin-2-yl)-2,11,16-trioxo-3,8,10,12,15-pentaazaoctadec-9-en-1-yl)phenoxy)propyl)amino)-6-oxohexyl)amino)-2-oxoethyl)-1,4,7,10-tetraazacyclododecane-1,4,7-triyl)triacetic acid]",< 10 nM
17,"CCC(=O)NCCNC(=O)/N=C(/N)NCCC[C@@H](NC(=O)[C@H](c1ccc(OCCCNC(=O)CCC(=O)NCCOCCNC(=O)CN2CCN(CC(=O)O)CCN(CC(=O)O)CCN(CC(=O)O)CC2)cc1)N1Cc2ccccc2C1)C(=O)NCc1c(F)cc(O)cc1F [compound 43, 2,2′,2″-(10-(17-(4-((1S,4R,Z)-9-amino-4-((2,6-difluoro-4-hydroxybenzyl)carbamoyl)-1-(isoindolin-2-yl)-2,11,16-trioxo-3,8,10,12,15-pentaazaoctadec-9-en-1-yl)phenoxy)-2,10,13-trioxo-6-oxa-3,9,14-triazaheptadecyl)-1,4,7,10-tetraazacyclododecane-1,4,7-triyl)triacetic acid]",< 10 nM
18,"CCNC(=O)/N=C(/N)NCCC[C@@H](NC(=O)[C@H](c1ccccc1)N1Cc2cccc(NCCCN)c2C1)C(=O)NCc1c(F)cc(O)cc1F [compound 65, (R)-2-((S)-2-(4-((3-aminopropyl)amino)isoindolin-2-yl)-2-phenylacetamido)-N-(2,6-difluoro-4-hydroxybenzyl)-5-((Z)-2-(ethylcarbamoyl)guanidino)pentanamide]",< 10 nM
19,"CCC(=O)NCCNC(=O)/N=C(/N)NCCC[C@@H](NC(=O)[C@H](c1ccc(OCCCNc2c(NCCNC(=O)CN3CCN(CC(=O)O)CCN(CC(=O)O)CCN(CC(=O)O)CC3)c(=O)c2=O)cc1)N1Cc2ccccc2C1)C(=O)NCc1ccc(O)cc1 [compound 16, 2,2′,2″-(10-(2-((2-((2-((3-(4-((1S,4R,Z)-9-amino-4-((4-hydroxybenzyl)carbamoyl)-1-(isoindolin-2-yl)-2,11,16-trioxo-3,8,10,12,15-pentaazaoctadec-9-en-1-yl)phenoxy)propyl)amino)-3,4-dioxocyclobut-1-en-1-yl)amino)ethyl)amino)-2-oxoethyl)-1,4,7,10-tetraazacyclododecane-1,4,7-triyl)triacetic acid]",< 10 nM
20,"CCNC(=O)/N=C(/N)NCCC[C@@H](NC(=O)C(c1ccccc1)N1CCC(C(C)(C)C)CC1)C(=O)NCc1c(F)cc(O)cc1F (stereo partly drawn) [compound 92, (2R)-2-(2-(4-(tert-butyl)piperidin-1-yl)-2-phenylacetamido)-N-(2,6-difluoro-4-hydroxybenzyl)-5-((Z)-2-(ethylcarbamoyl)guanidino)pentanamide]",< 10 nM
